Key:
[1] = tested on: decapitated female moths; experiment: sex pheromone production in vivo by decapitated female moths; parameters: species or system Helicoverpa (Heliothis) armigera; details: diclofop acid 10 μmol/female, PBAN 1 pmol/female, FIG. 7
Source text: (§1) Two distinct assay systems were applied in order to determine the inhibition of PBAN-induced pheromone production, elicited by aryloxyphenoxy propionates and cyclohexandione oximes such as diclofop, diclofop-methyl and tralkoxydim. The first assay monitors de novo pheromone production by isolated pheromone glands in vitro according to the method of Rafaeli and Gileadi^7 (Experimental Section). The second assay, monitors sex pheromone production in vivo by decapitated female moths that are incapable of pheromone production unless stimulated by PBAN (Experimental section).
In vivo sex pheromone production by female moths was determined in 2-day old females. The females were decapitated during the photophase of day 1 and subsequently maintained for an additional 24 h, after which they were injected with either physiological saline (control) or 1 pmol/moth Hez-PBAN in saline, and in the additional presence or absence of diclofop acid. Ovipositor tips (containing pheromone glands) were removed 2 h after injection and extracted for 10 min in hexane, containing 25 ng tridecanyl acetate (Sigma, USA) as internal standard. […] Z11-hexadecenal was quantified using the internal standard quantification methods as described previously^9.

[2] = tested on: bees and beneficial insects; details: field conditions; cited from earlier work
[3] = tested on: pheromone glands; experiment: de novo pheromone production by isolated pheromone glands in vitro (radiolabel incorporation); assay type: cell-based, Helicoverpa (Heliothis) armigera; details: for inhibition of Hez-PBAN-activated sex pheromone production: Hez-PBAN 0.05 μM, inhibitor in μM range, FIG. 3
Source text: as §1
Intersegmental membranes (pheromone glands) between the eighth and ninth abdominal segments were removed from 2-3 day old virgin females. After 1 h preincubation in Pipes buffered incubation medium (pH 6.6), pheromone glands were dried on tissue paper and then transferred individually to 10 μl incubation medium containing 0.25 μCi [1-^14C]-acetate (56 mCi/mmole, NEN, Boston, USA) in the presence or absence of Hez-PBAN (Peninsula Labs, Belmont, Calif., USA) and in the additional presence or absence of either diclofop acid or diclofop methyl ester (FIG. 3).
Incubations were performed for 3 h at room temperature. In order to measure the incorporation of radiolabel from [1-^14C] sodium acetate, the glands were extracted in 200 μl hexane for 0.5 h at room temperature and a 100 μl aliquot of the upper hexane phase was measured in a β-counter. Relative levels of incorporation into the pheromone component were determined using HPLC analysis as reported previously^9 using a Vydac C18 reversed phase column and a linear gradient from 40-55% acetonitrile. Fractions were collected every minute and radioactivity determined. The radioactive elution profile (shown in FIG. 8) was compared to known elution times of standard palmitic acid, Z11-hexadecenol and the main pheromone product of H. armigera^10, Z11-hexadecenal (Sigma, USA). In some experiments [1-^14C]-acetyl CoA (Amersham Pharmacia Biotech, UK.) or [9, 10-^3H]-palmitic acid (Life Science Products, Inc, Texas, USA) were substituted for [1-^14C]-acetate in order to measure relative incorporation into pheromone from these precursors. The effect of palmitoyl CoA (Sigma) was also tested in a different set of experiments using [^14C]-acetate as precursor (as shown in FIG. 2).

[4] = tested on: ACCase enzyme; experiment: Inhibition of ACCase (partially purified enzyme from pheromone glands); assay type: biochemical, Helicoverpa (Heliothis) armigera; details: in vitro, enzyme from pheromone producing tissue, FIG. 6
Source text: The […] enzyme was extracted from pheromone glands separated on TMAE column and the eluted enzyme was used. Acetyl CoA was used as a substrate that requires HCO3^- where radiolabeled HCO3^- was used. In the presence of the enzyme, the substrate will be converted to radiolabeled malonyl CoA (see FIG. 1). Therefore, the difference in the level of incorporation of the radiolabeled malonyl CoA in the presence and absence of the […] enzyme was used to obtain the activity level of endogenous […] in the presence or absence of herbicides (FIG. 6).

Compound: CC(Oc1ccc(Oc2ccc(Cl)cc2Cl)cc1)C(=O)O (centres unmarked) [diclofop acid]
- inhibition of in vivo synthesis of pheromone Z11-hexadecenal induced by PBAN [1]: inhibited the production of the pheromone
- toxicity to bees and beneficial insects [2]: relatively non-toxic
- inhibition of Hez-PBAN-activated sex pheromone production ([3]; in vitro): significantly inhibits
- inhibition of partially purified ACCase enzyme activity [4]: may inhibit directly

Compound: COC(=O)C(C)Oc1ccc(Oc2ccc(Cl)cc2Cl)cc1 (centres unmarked) [diclofop-methyl]
- inhibition of Hez-PBAN-activated sex pheromone production ([3]; in vitro): significantly inhibits pheromone production to the same extent as the acid

Compound: CCCCCCCCCCCCCCCC(=O)O [palmitic acid]
- effect on the pheromonotropic action of PBAN ([3]; addition of palmitic acid, data not shown): did not affect

Compound: CCCCCCCCCCCCCCCC(=O)SCCNC(=O)CCNC(=O)[C@H](O)C(C)(C)COP(=O)(O)OP(=O)(O)OC[C@H]1O[C@@H](n2cnc3c(N)ncnc32)[C@H](O)[C@@H]1OP(=O)(O)O [palmitoyl-CoA]
- effect on production of pheromone ([3]; in vitro, 0.01 μM Hez-PBAN, 14C-acetate, FIG. 2): inhibiting its biosynthesis

Compound: CCO/N=C(\CC)C1=C(O)CC(c2c(C)cc(C)cc2C)CC1=O (centres unmarked) [tralkoxydim]
- concentration at which the inhibitory effect occurs ([3]; in vitro, Hez-PBAN 0.01 μM, FIG. 5): 100 µM
